Experimental data reported in patent US20250161478A1, “LINKER PAYLOADS AND CONJUGATES THEREOF” (priority 2021, published 2025).
Like-named read-outs stand apart in the source and are kept apart here.

Assays:
[1] = system: B16-F10 mouse melanoma tumors; assay: In vivo efficacy of PNU-ADCs in B16-F10 mouse melanoma model (Example 31); design: species or system mice
Procedure: In vivo anti-tumor efficacy of anti-TYRP1 ADCs (TAPeD, FLPeD, CHPeD and FLCPeMg) was evaluated in the B16-F10 mouse melanoma model as described above. […] Tumor growth was followed by palpation, and ADC dosings were administered when tumor sizes reached 60-110 mm^3, between 2-7 days after the inoculation. […] A single i.v. injection of 5 mg/kg ADC in PBS was given on the injection day and the tumor sizes were followed for at least 28 days. […] Another xenograft experiment was performed similarly as above. In this experiment, 10 xenografted mice received no treatment, while 10 xenografted mice were given three i.v. doses of 10 mg/kg TA99 antibody on days 2, 7 and 12 after the inoculation (3×10 mg/kg at 5 day intervals). In every one of these 20 mice the tumors grew to >200 mm^3 during 28 days' follow-up period.

[2] = system: HL-60 cells; assay: Cytotoxicity of anti-CD33 ADCs in HL-60 cells; format: cell-based; conditions: HL-60 cells treated for 5 days
Source text: (§1) The AVG % values and standard deviations were transferred to GraphPad Prism 9.1.2.

[3] = system: MOLM-13 cells; assay: Cytotoxicity of anti-CD33 ADCs in MOLM-13 cells; format: cell-based; conditions: MOLM-13 cells treated for 3 days
Source text: as §1

[4] = system: KG-1 cells; assay: Cytotoxicity of anti-CD33 ADCs in KG-1 cells; format: cell-based; conditions: for IC50: KG-1 cells treated for 3 or 4 days, n = 3
Source text: as §1

[5] = system: K-562 (low CD33) cells; assay: Cytotoxicity of anti-CD33 ADCs in K-562 cells; format: cell-based; conditions: K-562 (low CD33) cells treated for 3 days
Source text: as §1

[6] = system: Ramos.2G6.4C10 (no CD33 expression) cells; assay: Cytotoxicity of anti-CD33 ADCs in Ramos cells; format: cell-based
Source text: as §1

[7] = system: Daudi (no CD33 expression) cells; assay: Cytotoxicity of anti-CD33 ADCs in Daudi cells; format: cell-based
Source text: as §1

[8] = system: HL-60 acute myeloid leukemia (AML) cell xenograft tumors; assay: In vivo efficacy of anti-CD33 ADCs in HL-60 leukemia xenograft; conditions: single i.v. 10 mg/kg
Procedure: In vivo anti-leukemia xenograft efficacy was evaluated for anti-CD33 ADCs LNAuM (DAR=8.0) and GMAuM (DAR=8.0), as well as anti-CD33 antibodies LN and GM. HL-60 acute myeloid leukemia (AML) cells were obtained from the ATCC and cultured according to the manufacturer's instructions. The study was performed at the TCDM/Central Animal Laboratory, University of Turku, Finland, according to the appropriate ethical committee approval. Cells for inoculation to mice were prepared in vigorous exponential growth phase. 2 million cells in 50% Matrigel were inoculated s.c. to the flank of each mouse (female athymic nude mice between 8-10 weeks of age). Clinical signs and general behavior of the animals was observed regularly. […] Tumor growth was followed by palpation. After caliper measurement, tumor volume was calculated according to 0.5×length×width^2. The first dosings were administered when average tumor volume reached 100 mm^3. […] Intravenous (i.v.) treatment of 10 mg/kg either antibody or ADC in PBS was given once (single dose regimen), while the control group received no treatment.

[9] = ADC concentration in serum by ELISA (systemic exposure); format: in vivo, mice; conditions: trapezoidal method, 10 mg/kg i.v.
Procedure: Serum samples (from 40 μl blood) were taken from each mouse in the treatment groups as well as two mice in the control group to follow systemic exposure of the compounds on day 1, day 5 and day 9 after dosing. ADC concentrations in the serum samples were analyzed by ELISA using FastELISA Human immunoglobulin quantification kit (RD-Biotech) according to the manufacturer's instructions. Between 1 d-9 d, LNAuM had better systemic exposure than GMAuM and GMAuM was eliminated faster from circulation by Day 9 than LNAuM.

[10] = system: CD33- cell lines Ramos and Daudi versus CD33+ cells; assay: In vitro therapeutic window, CD33- versus CD33+ cell lines; format: cell-based; conditions: IC50 not reached at 300 nM in Ramos and Daudi versus CD33+ cells
[11] = system: B16-F10 mouse melanoma tumors; assay: In vivo efficacy in B16-F10 syngeneic tumor mice (Example 9); design: species or system C57BL/6J mice; conditions: single i.v. 5 mg/kg two days after inoculation, six mice/group
Source text: In vivo anti-tumor efficacy of ADC of monoclonal TA99 IgG2a antibody, glycoconjugated TA99 ADC with DBCO-Val-Ser(GlcA)-EDA-PNU payloads (TA99-PNU ADC, DAR=2) and TA99 ADC with maleimidoacetyl-EDA-PNU payloads (TA99-M-PNU ADC, DAR=4), prepared and maleimide-stabilized as described above, was compared to non-treated mice. B16-F10 mouse melanoma cells were obtained from the ATCC (USA) and cultured according to the manufacturer's instructions to study efficacy of antibody-drug conjugates in highly treatment-resistant syngeneic tumors in female adult C57BL/6J mice at the age of about 8-weeks. […] Tumor growth was followed by palpation. […] The first dosings were administered two days after the inoculation due to the high take rate and very rapid growth of the tumors. Mice were randomly divided into study groups. […] Unconjugated antibody (TA99/anti-gp75, Invivogen) was used in this study as the control treatment.

[12] = In vivo tolerability of PNU-ADCs in normal mice; design: species or system C57BL/6J mice; conditions: for Dose-limiting toxicity dose level / MTD (maximum tolerated dose): single i.v. dose; for Dose-limiting toxicity dose level: n=3, followed up to 30 days; for MTD (maximum tolerated dose): n=3, next lower dose below the dose-limiting toxicity dose level
Procedure: Tolerability and safety of ADCs conjugated with PNU-EDA linker-payloads were tested in normal C57BL/6J mice. Female young adult mice at the age of 8-10 weeks were used, 3 mice/group (n=3). […] Clinical signs, body weight and general behavior of the animals were observed regularly. Dose-limiting toxicity was observed as either over 10% reduction of average body weight in the group or acute toxicity in any animal in the group. Maximum tolerated dose (MTD) was determined as the next lower dose below the dose-limiting toxicity dose level. ADCs were prepared as described above and a single i.v. dose of the ADC was given on the first day of the study. The mice were followed for up to 30 days if no dose-limiting toxicity was observed.

[13] = system: IGR-1 human melanoma cells; assay: Cytotoxicity of ADCs, PrestoBlue cell viability, IGR-1 cells; format: cell-based
Procedure: (§2) Toxicity of anti-TYRP ADCs was tested with SK-MEL-28 (ATCC: HTB®-72™) SK-MEL-30 (DSMZ: ACC 151) and/or IGR-1 (DSMZ: ACC 236) human melanoma cells.
IGR-1 cells were seeded in 96-well plate, 2000 cells/well, and cultivated in 10% FBS/DMEM-medium under standard cell culture conditions. After overnight culture, the diluted ADCs or unconjugated antibodies (concentration range 0.1 nM-300 nM) were added to cells, and incubated for 3-5 days. The viability of the cells was evaluated with PrestoBlue cell viability reagent.
as §1

[14] = system: SK-MEL-30 human melanoma cells; assay: Cytotoxicity of ADCs, PrestoBlue cell viability, SK-MEL-30 cells; format: cell-based; conditions: incubated 3-5 days, ranges are over n experiments
Procedure: as §2
SK-MEL-30 were seeded in 96-well plate, 2000 cells/well or 3000 cells/well and cultivated in 10% FBS/RPMI 1640-medium under standard cell culture conditions. After overnight culture, diluted ADCs or antibodies were added to the cells, and incubated for 3-5 days. For cell control, the cells were treated with medium without ADC. The viability of the cells was evaluated with PrestoBlue cell viability reagent.
as §1

[15] = single 5 mg/kg i.v. dose on days 2-7 when tumors reach 60-110 mm^3, 6 mice/group, at least 28 days
[16] = 5 mice/group, 30 days follow-up

Substance: Chimeric TA99-DBCO-Val-Ser(G1cA)-EDA-PNU [CHPeD]
- Number of mice with <200 mm^3 tumor at end of study [1, 15]: 2

Substance: lintuzumab-maleimidoacetyl-β-Ala-Val-Ser(Glc)-PAB-MMAU [LNAuM]
- IC50 ([2]; n = 4, read-out: IC50 (AVG ± standard deviation)): 0.272 ± 0.181 nM
- IC50 ([2]; range over n experiments, read-out: IC50): 0.024 to 0.459 nM
- IC50 ([3]; n = 3, read-out: IC50 (AVG ± standard deviation)): 0.039 ± 0.016 nM
- IC50 ([3]; read-out: IC50): 0.023 to 0.055 nM
- IC50 ([4]; read-out: IC50): 0.144 to 0.313 nM
- IC50 ([4]; read-out: IC50 (AVG ± standard deviation)): 0.242 ± 0.088 nM
- IC50 [5]: 24 to 66 nM
- IC50 ([6]; Ramos.2G6.4C10 cells, no CD33 expression): > 300 nM
- IC50 ([7]; no CD33 expression, treated for 3 days): > 300 nM
- toxicity (in words) [8]: no toxicity was detected
- mice in which tumors disappeared without regrowth [8, 16]: 5/5
- AUC(1-9 d), partial area under curve between 1 d-9 d [9]: 200 mg·days/L
- in vitro therapeutic window [10]: greater than 10000

Substance: gemtuzumab-maleimidoacetyl-β-Ala-Val-Ser(Glc)-PAB-MMAU [GMAuM]
- toxicity (in words) [8]: no toxicity was detected
- mice in which tumors disappeared without regrowth [8, 16]: 5/5
- AUC(1-9 d), partial area under curve between 1 d-9 d [9]: 160 mg·days/L

Substance: TA99
- tumor growth (in words) [11]: tumors grew rapidly
- Number of mice with <200 mm^3 tumor at end of study ([1]; 3 × 10 mg/kg i.v. on days 2, 7 and 12 after inoculation, 10 mice/group, 28 days): 0
- toxicity (in words) ([12]; 20 mg/kg or 30 mg/kg): No toxicity was observed

Substance: lintuzumab
- Unconjugated antibody: no effect up to (highest concentration tested) ([4]; KG-1 cells): > 300 nM
- Unconjugated antibody: no effect up to (highest concentration tested) ([6]; Ramos cells): > 300 nM
- Unconjugated antibody: no effect up to (highest concentration tested) [7]: > 300 nM
- duration of tumor growth inhibition ([8]; 5 mice/group): about 20 days

Substance: FLCPeMa: cysteine engineered flanvotumab HC N299C conjugated with PeMa (MA-Ac-EDA-PNU), DAR 1.7
- Dose-limiting toxicity dose level [12]: 20 mg/kg
- MTD (maximum tolerated dose) [12]: 15 mg/kg

Substance: FLCPeMala: cysteine engineered flanvotumab HC N299C conjugated with PeMala (MA-Ac-β-Ala-EDA-PNU), DAR 2.0
- IC50 values against IGR-1 cells (in words) [13]: picomolar
- MTD (maximum tolerated dose) [12]: 5 mg/kg

Substance: Flanvotumab-DBCO-Val-Ser(GlcA)-EDA-PNU [FLPeD]
- IC50 values against IGR-1 cells (in words) [13]: picomolar
- IC50 [14]: 1.3 to 8.2 nM
- Number of mice with <200 mm^3 tumor at end of study [1, 15]: 2
- Dose-limiting toxicity dose level [12]: 15 mg/kg
- MTD (maximum tolerated dose) [12]: 10 mg/kg

Substance: gemtuzumab
- tumor growth (in words) [8, 16]: tumors grew fast

Substance: FLCPeMg: cysteine engineered flanvotumab HC N299C conjugated with PeMg (MA-Ac-β-Ala-VS(GlcA)-EDA-PNU), DAR 2.2
- IC50 values against IGR-1 cells (in words) [13]: picomolar
- Number of mice with <200 mm^3 tumor at end of study [1, 15]: 2
- Dose-limiting toxicity dose level [12]: 12.5 mg/kg
